In US10323078B2, “Isolated peptides and fragments thereof from fibrinogen for use as drugs, particularly in skin inflammatory diseases” (Universite Paris Descartes, priority 2015, dated 2019):

Tests used:
[1] = test system: P. acnes surface proteins; assay: Binding of biotinylated ECM ligands to immobilized P. acnes surface proteins; set-up: species or system Propionibacterium acnes; details: 25 μg/ml of protein immobilized per well; various quantity of biotinylated Fg and Collagen I
Method: FIG. 2: Binding of P. acnes surface protein to purified human fibrinogen. (A) P. acnes surface proteins (0.8 to 50 μg/ml) were immobilized onto a 96-well polystyrene plate and probed with biotinylated fibrinogen (0.1 μg/ml) for 2 h at room temperature. (B) P. acnes surface proteins (25 μg/ml) were immobilized onto a 96-well polystyrene plate and probed with various concentrations of biotinylated fibrinogen ranging from 0.1 to 16 μg/ml for 2 h at room temperature. Bound biotinylated fibrinogen were detected with HRP-streptavidine as described in Materials and Methods.
To characterize the interaction between P. acnes and ligands, we used biotinylated molecules in quantitative and qualitative assays. In a first set of assays, ECM ligands (fibrinogen, collagens I, IV, VI and VIII) were used as labelled proteins with biotin. In a second set of assays, P. acnes surface proteins (total extract and purified Pfg) were biotinylated. For quantitative analysis, unlabeled protein were diluted into 50 mM carbonate-bicarbonate, pH 9.6 buffer to yield a protein concentration ranging from 0.01 to 50 μg/ml, and then immobilized to 96-well polystyrene plates at 4° C. overnight. […] After washing, bound peroxidase was detected using the chromogenic peroxidase substrate ABTS. […] Binding activity was detected by incubating the membranes with 20 ml of PBT containing biotinylated proteins (0.1 μg/ml) for 2 h at room temperature followed by three washes with PBT. Bound biotinylated proteins were detected by incubating the membrane with peroxidase conjugated to streptavidin (0.5 μg/ml in PBT) for 1 h at room temperature. After washing, bound peroxidase activity was detected using 3,3′-diaminobenzidine in the presence of CoCl2 and H2O2 (Harlow and Lane, 1988).
In order to identify P. acnes surface protein recognized by ECM ligands, we used the most commons ECM proteins recognize by skin related bacteria like collagens and fibrinogen. […] To identify surface proteins, P. acnes total heat protein extracts were electrophoretically separated and detected by silver staining (FIG. 1B). […]

[2] = test system: HaCaT, NHDK, THP-1, MRC5 and HDF; assay: H2O2 production by cells stimulated with P. acnes, overall statement for the five cell lines; assay type: cell-based, human; details: pretreatment of P. acnes strains with small peptide 2.5 to 20 μM; five cell lines and three strains tested
Method: FIG. 17: Dose-dependent inhibition of H2O2 production by fibroblast pre-treated by small Fg1-generated peptides and stimulated by P. acnes. MRC5 cell were incubated for 24 h with small peptides Fg1.1 (light gray bar), Fg1.2 (horizontal line bar), Fg1.3 (hatched bar), Fg1.4 (dark gray bar), Fg1.5 (dotted bar) at concentrations ranging from 2.5 to 20 μM. Measurement of hydrogen peroxide production was realized by spectrofluorometry as described in Materials and Methods. Controls experiments were done with unstimulated MRC5 cell (white bar) and MRC5 stimulated with P. acnes (black bar). Data are means±S.D. of three separate experiments. Statistical significance is indicated by * (P<0.05), ** (P<0.01), *** (P<0.001), and **** (P<0.0001), respectively.
(§1) All cells lines (5·10^4 to 10^5 cells/well) were seeded in 96-well plates (Corning Costar, Brumath, France) and treated as previously described. After stimulation, cells were washed three times in PBS and incubated with 100 μl per wells of 5 μM DHE (for determination of O2^●−) or 5 μM H2-DCFDA (for determination of H2O2) for 30 min as described previously and fluorescence intensity was recorded every hour over a period of 5 h. Fluorescence excitation/emission maxima were for DHE: 480/610 nm and for H2-DCFDA: 507/525 nm. At the end of the experiment, the number of adherent cells was evaluated by the crystal violet assay as described below. O2^●−, and H2O2 were assayed by spectrofluorimetry on a Fusion spectrofluorimeter (PackardBell, Paris, France). Levels of ROS were calculated in each sample as follows: reactive oxygen species rate (arbitrary units/min/10^6 cells)=(fluorescence intensity [arbitrary units] at T5h—fluorescence intensity [arbitrary units] at To/300 minutes/number of adherent cells as measured by the crystal violet assay, and were expressed as arbitrary unit (A.U.).
(§2) To assess the efficacy of the small Fg1-related peptide, the production of H2O2 by several cell lines (HaCaT, NHDK, THP-1, MRC5 and HDF) stimulated by three P. acnes strains 6919, RON and PIE was measured, in presence or not with the small peptides. The amount of H2O2 produced is compared to that produced by the stimulated cells with untreated bacteria. Production baseline is obtained by measuring H2O2 on unstimulated cells. The measurement of the production of H2O2 is performed by spectrofluorimetry in the presence of specific fluorochromes directly on the monolayer cell.
(§3) Two sets of experiments have been implemented: • I) The cells are stimulated (18 h at 37° C.) by P. acnes strains previously pretreated with Fg1.1, Fg1.2, Fg1.3, Fg1.4, and Fg1.5 small peptides at the final concentrations ranging from 2.5 to 20 μM for 1 h at 37° C.; • II) The cells are pretreated first with the five small peptides at the final concentrations ranging from 2.5 to 20 μM for 24 h at 37° C. and stimulated (18 h at 37° C.) by P. acnes strains.
FIG. 17 corresponds to the results obtained with the P. acnes RON strain on the fibroblast MRCS cell line and are representative of the results obtained with all P. acnes and cells lines tested (Table 6).

ThP1 cells = assay: H2O2 production by P. acnes-stimulated ThP1; assay type: cell-based, human; details: small peptides 2.5 to 20 μM
Method: (§4) For experiences of stimulation with P. acnes, cells were incubated with the P. acnes suspension adjusted at the appropriate concentration, pre-treated for 1 h at 37° C. or not with fibrinogen recombinant peptides Fg1 and Fg2 at the concentrations 0.87, 1.75, 3.5 or 7 μM for the desired period of time at 37° C. in 5% CO2.
as §1
(§5) To assess the efficacy of Fg1 recombinant peptide, the production of O2^∘− and H2O2 by HaCaT cells NHDK, THP-1, MRC5 and HDF stimulated by pretreated P. acnes strains 6919, RON and PIE was measured. The amount of ROS produced was compared to that produced by the stimulated cells with untreated bacteria. Production baseline was obtained by measuring ROS on unstimulated cells. The production of IL-1ß, IL-8, IL-12 and TNF-α was also measured in all conditions cited above. The measurement of the production of ROS is performed by spectrofluorimetry in the presence of specific fluorochromes directly on the monolayer cell. Measurement of cytokine production was performed in parallel on the cell culture supernatant.
(§6) Two sets of experiments were implemented: 1) The cells were stimulated (18 h at 37° C.) by P. acnes strains previously pretreated with Fg1 and Fg2 peptides at the final concentrations ranging from 0.87 to 7 μM for 1 h at 37° C.; and 2) The cells were pretreated first with Fg1 and Fg2 peptides at the final concentrations ranging from 0.87 to 7 μM for 24 h at 37° C. and stimulated (18 h at 37° C.) by P. acnes strains.
as §2, §3

NHDK cells = assay: H2O2 production by P. acnes-stimulated NHDK; assay type: cell-based, human; details: cells first pretreated, small peptides 2.5 to 20 μM
Method: as §4, §1, §5, §6, §2, §3

HaCaT cells = assay: H2O2 production by P. acnes-stimulated HaCaT (spectrofluorimetry, H2-DCFDA); assay type: cell-based, human; details: small peptides 2.5 to 20 μM
Method: as §4, §1, §5, §6, §2, §3

MRC5 cells = assay: H2O2 production by P. acnes-stimulated MRC5; assay type: cell-based, human; details: small peptides 2.5 to 20 μM
HDF cells = assay: H2O2 production by P. acnes-stimulated HDF; assay type: cell-based, human; details: cells first pretreated, small peptides 2.5 to 20 μM
Method: as §4, §1, §5, §6, §2, §3

[3] = P. acnes 6919, set I, bacteria first pretreated
[4] = P. acnes 6919, set II, cells first pretreated
[5] = P. acnes PIE, set I, bacteria first pretreated
[6] = P. acnes PIE, set II, cells first pretreated
[7] = P. acnes RON, set I, bacteria first pretreated
[8] = P. acnes RON, set II, cells first pretreated

collagen I: commercial ECM ligand, biotinylated, tested for binding to P. acnes surface proteins [reference compound]
Binding activity of biotinylated ligand to immobilized P. acnes total surface protein [1]: No binding activity

MKRMVSWSFHKLKTMKHLLLLLLCVFLVKSQGVND (fragment Fg1.1) [small peptide generated from Fg1]
Inhibition of H2O2 production [2]: inhibits the production of H2O2 in a dose-dependent manner | Inhibition of Hydrogen peroxide (H2O2) production (ThP1 cells; [3]): pos | Inhibition of Hydrogen peroxide (H2O2) production (ThP1 cells; [4]): pos | Inhibition of Hydrogen peroxide (H2O2) production (ThP1 cells; [5]): pos | Inhibition of Hydrogen peroxide (H2O2) production (ThP1 cells; [6]): pos | Inhibition of Hydrogen peroxide (H2O2) production (ThP1 cells; [7]): pos | Inhibition of Hydrogen peroxide (H2O2) production (ThP1 cells; [8]): pos | Inhibition of Hydrogen peroxide (H2O2) production (NHDK cells; P. acnes 6919, set II): pos | Inhibition of Hydrogen peroxide (H2O2) production (NHDK cells; P. acnes PIE, set II): pos | Inhibition of Hydrogen peroxide (H2O2) production (NHDK cells; P. acnes RON, set II): pos | Inhibition of Hydrogen peroxide (H2O2) production (HaCaT cells; [3]): pos | Inhibition of Hydrogen peroxide (H2O2) production (HaCaT cells; [4]): pos | Inhibition of Hydrogen peroxide (H2O2) production (HaCaT cells; [5]): pos | Inhibition of Hydrogen peroxide (H2O2) production (HaCaT cells; [6]): pos | Inhibition of Hydrogen peroxide (H2O2) production (HaCaT cells; [7]): pos | Inhibition of Hydrogen peroxide (H2O2) production (MRC5 cells; [3]): pos | Inhibition of Hydrogen peroxide (H2O2) production (MRC5 cells; [4]): pos | Inhibition of Hydrogen peroxide (H2O2) production (MRC5 cells; [5]): pos | Inhibition of Hydrogen peroxide (H2O2) production (MRC5 cells; [6]): pos | Inhibition of Hydrogen peroxide (H2O2) production (MRC5 cells; [7]): pos | Inhibition of Hydrogen peroxide (H2O2) production (HDF cells; P. acnes 6919, set II): pos | Inhibition of Hydrogen peroxide (H2O2) production (HDF cells; P. acnes PIE, set II): pos | Inhibition of Hydrogen peroxide (H2O2) production (HDF cells; P. acnes RON, set II): pos

LLLCVFLVKSQGVNDNEEGFFSARGHRPLD (fragment Fg1.4) [small peptide generated from Fg1, overlapping Fg1.1 and Fg1.2]
Inhibition of H2O2 production [2]: inhibits the production of H2O2 in a dose-dependent manner | Inhibition of Hydrogen peroxide (H2O2) production (ThP1 cells; [3]): pos | Inhibition of Hydrogen peroxide (H2O2) production (ThP1 cells; [4]): pos | Inhibition of Hydrogen peroxide (H2O2) production (ThP1 cells; [5]): pos | Inhibition of Hydrogen peroxide (H2O2) production (ThP1 cells; [6]): pos | Inhibition of Hydrogen peroxide (H2O2) production (ThP1 cells; [7]): pos | Inhibition of Hydrogen peroxide (H2O2) production (ThP1 cells; [8]): pos | Inhibition of Hydrogen peroxide (H2O2) production (NHDK cells; P. acnes 6919, set II): pos | Inhibition of Hydrogen peroxide (H2O2) production (NHDK cells; P. acnes PIE, set II): pos | Inhibition of Hydrogen peroxide (H2O2) production (NHDK cells; P. acnes RON, set II): pos | Inhibition of Hydrogen peroxide (H2O2) production (HaCaT cells; [3]): pos | Inhibition of Hydrogen peroxide (H2O2) production (HaCaT cells; [4]): pos | Inhibition of Hydrogen peroxide (H2O2) production (HaCaT cells; [5]): pos | Inhibition of Hydrogen peroxide (H2O2) production (HaCaT cells; [6]): pos | Inhibition of Hydrogen peroxide (H2O2) production (HaCaT cells; [7]): pos | Inhibition of Hydrogen peroxide (H2O2) production (MRC5 cells; [3]): pos | Inhibition of Hydrogen peroxide (H2O2) production (MRC5 cells; [4]): pos | Inhibition of Hydrogen peroxide (H2O2) production (MRC5 cells; [5]): pos | Inhibition of Hydrogen peroxide (H2O2) production (MRC5 cells; [6]): pos | Inhibition of Hydrogen peroxide (H2O2) production (MRC5 cells; [7]): pos | Inhibition of Hydrogen peroxide (H2O2) production (HDF cells; P. acnes 6919, set II): pos | Inhibition of Hydrogen peroxide (H2O2) production (HDF cells; P. acnes PIE, set II): pos | Inhibition of Hydrogen peroxide (H2O2) production (HDF cells; P. acnes RON, set II): pos
